Holding throughout (type): cell-based
Assay [1] deals with T1, MCT4 (Homo sapiens (Human), UniProt O15427). In words: Lactate transport in MCT4-expressing MDA-MB-453 breast cancer cells (BCECF). The settings on record: MDA-MB-453 cells stably expressing MCT4; 50 mM L-lactate. The procedure: Assay 1: Lactate Transport in MCT4-Expressing MDA-MB-453 Breast Cancer Cells. […] The following is an exemplary procedure for assaying MCT4 activity of the compounds of Formula (I). Preparing BCECF-Loaded Cells: […] The cells are pelleted (300 g, 5 min), washed once with 1 mL Tyrode's Solution, pH 7.4, re-pelleted (300 g, 5 min), and resuspended in 1 mL Tyrode's Solution, pH 7.4. Lactate Transport Assay: […] Fluorescence measurements are performed on a PerkinElmer LS55 fluorescence spectrometer with dual excitation wavelengths achieved using a filter wheel (FL Winlab program: Fast Filter; […] Emission 535). After establishing baseline BCECF fluorescence (around 10-20 s), 50 μL of 1 M sodium L-lactate (Sigma-Aldrich) is added to the cuvette (final concentration: 50 mM) and rapidly mixed.
T1 sequence (O15427 whole entry, looked up): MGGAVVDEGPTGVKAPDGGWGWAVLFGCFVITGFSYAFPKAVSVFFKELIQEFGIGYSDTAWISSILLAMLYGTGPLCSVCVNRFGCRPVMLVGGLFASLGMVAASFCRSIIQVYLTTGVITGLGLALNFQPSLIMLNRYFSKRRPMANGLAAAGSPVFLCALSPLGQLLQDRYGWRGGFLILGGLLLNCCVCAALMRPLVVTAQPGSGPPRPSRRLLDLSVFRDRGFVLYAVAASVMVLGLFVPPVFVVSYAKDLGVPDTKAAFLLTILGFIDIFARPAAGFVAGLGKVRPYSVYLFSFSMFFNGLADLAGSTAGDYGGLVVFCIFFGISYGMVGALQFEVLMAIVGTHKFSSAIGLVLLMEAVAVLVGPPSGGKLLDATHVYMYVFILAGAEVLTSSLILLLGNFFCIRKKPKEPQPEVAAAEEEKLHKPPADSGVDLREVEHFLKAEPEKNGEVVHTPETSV
T1 sequence (P35613 whole entry partner, looked up): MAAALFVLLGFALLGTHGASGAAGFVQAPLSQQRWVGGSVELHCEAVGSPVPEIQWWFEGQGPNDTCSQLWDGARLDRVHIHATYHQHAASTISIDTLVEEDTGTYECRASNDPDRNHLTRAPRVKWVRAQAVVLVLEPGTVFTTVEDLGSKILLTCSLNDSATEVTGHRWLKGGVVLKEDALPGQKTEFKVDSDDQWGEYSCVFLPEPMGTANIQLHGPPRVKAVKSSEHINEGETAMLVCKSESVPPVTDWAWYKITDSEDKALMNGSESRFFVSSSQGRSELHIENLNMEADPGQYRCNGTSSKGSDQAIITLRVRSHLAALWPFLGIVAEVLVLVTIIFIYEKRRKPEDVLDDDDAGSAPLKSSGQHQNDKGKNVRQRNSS

Another assay deals with MCT1 (Homo sapiens (Human), UniProt P53985). The assay is described as follows: MCT1-mediated lactate transport in BT20 breast cancer cells. The settings on record: native MCT1, 10 mM L-lactate, Table 2. The procedure: 10 μL of a 30 mM DMSO stock of BCECF-AM ester (Life Technologies) is added and the cells are incubated at 37° C. for 5 min. The cells are pelleted (300 g, 5 min), washed once with 1 mL Tyrode's Solution, pH 7.4, re-pelleted (300 g, 5 min), and resuspended in 1 mL Tyrode's Solution, pH 7.4.
Chain of MCT1 (P53985 whole entry): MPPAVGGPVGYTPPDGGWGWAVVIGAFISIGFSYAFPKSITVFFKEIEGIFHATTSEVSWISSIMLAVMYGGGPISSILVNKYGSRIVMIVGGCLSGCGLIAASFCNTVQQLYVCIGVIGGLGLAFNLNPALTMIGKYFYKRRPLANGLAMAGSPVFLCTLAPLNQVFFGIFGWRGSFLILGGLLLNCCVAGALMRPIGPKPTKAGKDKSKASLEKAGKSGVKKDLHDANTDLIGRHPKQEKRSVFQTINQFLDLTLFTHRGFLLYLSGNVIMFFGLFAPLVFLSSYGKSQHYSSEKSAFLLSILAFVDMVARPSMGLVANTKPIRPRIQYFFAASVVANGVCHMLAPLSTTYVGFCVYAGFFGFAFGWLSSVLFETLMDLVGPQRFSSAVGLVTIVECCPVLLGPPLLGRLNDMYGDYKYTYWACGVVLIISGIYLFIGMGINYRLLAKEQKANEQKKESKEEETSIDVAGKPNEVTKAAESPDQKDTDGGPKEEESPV
Chain of MCT1 (P35613 140-385 partner): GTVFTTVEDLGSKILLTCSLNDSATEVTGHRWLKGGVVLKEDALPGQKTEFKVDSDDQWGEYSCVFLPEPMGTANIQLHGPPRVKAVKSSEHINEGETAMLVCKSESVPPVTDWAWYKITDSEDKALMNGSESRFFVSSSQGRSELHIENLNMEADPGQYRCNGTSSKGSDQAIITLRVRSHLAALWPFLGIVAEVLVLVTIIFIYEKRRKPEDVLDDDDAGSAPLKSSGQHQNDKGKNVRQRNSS
2.5 μL BCECF-loaded cells, along with either 10 μL DMSO or 100×compound in DMSO, are added to 937.5 μL of Tyrode's Solution in a quartz 1.0 mL cuvette (PerkinElmer, B0631116). […] After establishing baseline BCECF fluorescence (around 10-20 s), 50 μL of 1 M sodium L-lactate (Sigma-Aldrich) is added to the cuvette (final concentration: 50 mM) and rapidly mixed. The time-dependent decrease in BCECF fluorescence (490/440 ratio) may be fit to an exponential decay curve (Prism GraphPad) to determine the rate of lactate transport.
Assay 4: MCT1-Mediated Lactate Transport in BT20 Breast Cancer Cells.
Preparation of BCECF loaded cells are as described for Assay 1. Lactate transport assay is as described for Assay 1, except 10 mM L-lactate (rather than 50 mM) is added.

The target of assay [2] is T1, MCT4. The assay is described as follows: MCT4-mediated lactate transport in NCI-H358 lung adenocarcinoma cells. Conditions: native MCT4, 50 mM L-lactate. The procedure:
Cells (˜7×10^6) are trypsinized (0.05% Trypsin-EDTA), pelleted (300 g, 5 min), and resuspended in 1 mL Tyrode's Solution, pH 7.4 (119 mM NaCl, 5 mM KCl, 25 mM HEPES, pH 7.4, 2 mM CaCl2, 2 mM MgCl2, 6 g/L glucose). 10 μL of a 30 mM DMSO stock of BCECF-AM ester (Life Technologies) is added and the cells are incubated at 37° C. for 5 min. The cells are pelleted (300 g, 5 min), washed once with 1 mL Tyrode's Solution, pH 7.4, re-pelleted (300 g, 5 min), and resuspended in 1 mL Tyrode's Solution, pH 7.4.
2.5 μL BCECF-loaded cells, along with either 10 μL DMSO or 100×compound in DMSO, are added to 937.5 μL of Tyrode's Solution in a quartz 1.0 mL cuvette (PerkinElmer, B0631116). Fluorescence measurements are performed on a PerkinElmer LS55 fluorescence spectrometer with dual excitation wavelengths achieved using a filter wheel (FL Winlab program: Fast Filter; Excitation 490/440; Emission 535). After establishing baseline BCECF fluorescence (around 10-20 s), 50 μL of 1 M sodium L-lactate (Sigma-Aldrich) is added to the cuvette (final concentration: 50 mM) and rapidly mixed. The time-dependent decrease in BCECF fluorescence (490/440 ratio) may be fit to an exponential decay curve (Prism GraphPad) to determine the rate of lactate transport.
Assay 2: MCT4-Mediated Lactate Transport in NCI-H358 Lung Adenocarcinoma Cells.
NCI-H358 lung adenocarcinoma cells may be used to measure MCT4 activity in cells with high native levels of MCT4 and low levels of MCT1 and are known to those with skill in the art. Preparation of BCECF-loaded cells and lactate transport activity may be determined as described for Assay 1.

In general, IC50 refers to the concentration that gives 50% inhibition.

In the case of `O=C(O)COCc1cc(-c2ccc(Cl)cc2)n(Cc2ccc(Cl)cc2Cl)n1` [Example 6, 2-[[5-(4-Chlorophenyl)-1-[(2,4-dichlorophenyl)methyl]pyrazol-3-yl]methoxy]acetic acid], the 50% inhibitory concentration (IC50) at MCT4 [1] was 2400 nM; on MCT1, 6600 nM; against MCT4 [2] it was 4600 nM.
In the same order, the values of `CC(C)(OCc1cc(-c2ccc(Cl)cc2)n(Cc2ccc(Cl)cc2)n1)C(=O)O` [Example 2] are 450 nM, 29000 nM and 240 nM.
In the same order, the values of `CC(C)(OCc1cc(-c2ccc(Cl)cc2)n(Cc2ccc(Cl)cc2Cl)n1)C(=O)O` [Example 5, 2-[[5-(4-Chlorophenyl)-1-[(2,4-dichlorophenyl)methyl]pyrazol-3-yl]methoxy]-2-methyl-propanoic acid] are 160 nM, 1800 nM and 63 nM.
For `CC(C)(OCc1cc(-c2cccc(C(F)(F)F)c2)n(Cc2ccccc2Cl)n1)C(=O)O` [Example 13, 2-[[1-[(2-Chlorophenyl)methyl]-5-[3-(trifluoromethyl)phenyl]pyrazol-3-yl]methoxy]-2-methyl-propanoic acid], in that order: 20 nM, 17000 nM and 22 nM.
On to `CC(C)(OCc1cc(C2CCCC2)n(Cc2ccccc2Cl)n1)C(=O)O` [Example 16, 2-[[1-[(2-Chlorophenyl)methyl]-5-cyclopentyl-pyrazol-3-yl]methoxy]-2-methyl-propanoic acid], for which the figures for the IC50 on MCT4 [1], at MCT1 and against MCT4 [2] were 1000 nM, 73000 nM and 640 nM, respectively.
For `CC(C)(OCc1cc(-c2ccc(Cl)cc2)n(Cc2ccccc2F)n1)C(=O)O` [Example 19, 2-[[5-(4-Chlorophenyl)-1-[(2-fluorophenyl)methyl]pyrazol-3-yl]methoxy]-2-methyl-propanoic acid], in that order: 110 nM, 57000 nM and 160 nM.
In the same order, the values of `CC(C)(OCc1cc(C2CCCCC2)n(Cc2ccccc2Cl)n1)C(=O)O` [Example 15, 2-[[1-[(2-Chlorophenyl)methyl]-5-cyclohexyl-pyrazol-3-yl]methoxy]-2-methyl-propanoic acid] are 900 nM, more than 33000 nM and 440 nM.
As to `CC(C)(OCc1cc(-c2ccc(Cl)cc2)n(Cc2cccnc2)n1)C(=O)O` [Example 23, 2-[[5-(4-Chlorophenyl)-1-(3-pyridylmethyl)pyrazol-3-yl]methoxy]-2-methyl-propanoic acid], the values for the IC50 at MCT4 [1] and on MCT4 [2] were 1500 nM and 2100 nM, respectively.
Turning to `CC(C)(OCc1cc(-c2cccc(F)c2)n(Cc2ccccc2Cl)n1)C(=O)O` [Example 12, 2-[[1-[(2-Chlorophenyl)methyl]-5-(3-fluorophenyl)pyrazol-3-yl]methoxy]-2-methyl-propanoic acid], the IC50 was found to be 38 nM at MCT4 [1], 58000 nM on MCT1 and 49 nM at MCT4 [2].
For `CC(C)(OCc1cc(-c2ccc(F)cc2)n(Cc2ccccc2Cl)n1)C(=O)O` [Example 4, 2-[[1-[(2-Chlorophenyl)methyl]-5-(4-fluorophenyl)pyrazol-3-yl]methoxy]-2-methyl-propanoic acid], in that order: 68 nM, 33000 nM and 54 nM.
Take `CC(C)(OCc1cc(-c2ccc(Cl)cc2)n(Cc2ccccc2Cl)n1)C(=O)O` [Example 3, 2-[[5-(4-Chlorophenyl)-1-[(2-chlorophenyl)methyl]pyrazol-3-yl]methoxy]-2-methyl-propanoic acid]: the results for the IC50 on MCT4 [1], against MCT1 and against MCT4 [2] were 72 nM, 25000 nM and 60 nM, respectively.
In the same order, the values of `CC(C)(OCc1cc(-c2nccs2)n(Cc2ccccc2Cl)n1)C(=O)O` [Example 18, 2-[[1-[(2-Chlorophenyl)methyl]-5-thiazol-2-yl-pyrazol-3-yl]methoxy]-2-methyl-propanoic acid] are 5300 nM, 45000 nM and 4200 nM.
On to `CC(C)(OCc1cc(-c2ccc(Cl)cc2)n(Cc2ccccn2)n1)C(=O)O` [Example 22, 2-[[5-(4-Chlorophenyl)-1-(2-pyridylmethyl)pyrazol-3-yl]methoxy]-2-methyl-propanoic acid], for which the IC50 was determined as 14000 nM at MCT4 [1], 150000 nM against MCT1 and 39000 nM against MCT4 [2].
For `CC(C)(OCc1cc(-c2ccccc2Cl)n(Cc2ccccc2Cl)n1)C(=O)O` [Example 9, 2-[[5-(2-Chlorophenyl)-1-[(2-chlorophenyl)methyl]pyrazol-3-yl]methoxy]-2-methyl-propanoic acid], in that order: 320 nM, 39000 nM and 340 nM.
For `CC(C)(OCc1cc(-c2ccc(Cl)cc2)n(Cc2ccncc2)n1)C(=O)O` [Example 21, 2-[[5-(4-chlorophenyl)-1-(4-pyridylmethyl)pyrazol-3-yl]methoxy]-2-methyl-propanoic acid], in that order: 35000 nM, 300000 nM and 48000 nM.
For `CC(C)(OCc1cc(-c2ccccc2)n(Cc2ccccc2Cl)n1)C(=O)O` [Example 8, 2-[[1-[(2-Chlorophenyl)methyl]-5-phenyl-pyrazol-3-yl]methoxy]-2-methyl-propanoic acid], in that order: 69 nM, 46000 nM and 81 nM.
For `CC(C)(OCc1cc(-c2ccc(Cl)cc2)n(Cc2ccccc2)n1)C(=O)O` [Example 7, 2-[[1-Benzyl-5-(4-Chlorophenyl)pyrazol-3-yl]methoxy]-2-methyl-propanoic acid], the IC50 worked out at 720 nM at MCT4 [1], 70000 nM against MCT1 and 460 nM on MCT4 [2].
In the same order, the values of `O=C(O)C1(OCc2cc(-c3ccc(Cl)cc3)n(Cc3ccccc3Cl)n2)CC1` [Example 17, 1-[[5-(4-Chlorophenyl)-1-[(2-chlorophenyl)methyl]pyrazol-3-yl]methoxy]cyclopropanecarboxylic acid] are 440 nM, 1200 nM and 860 nM.
In the same order, the values of `CC(C)(OCc1cc(-c2ccc(Cl)cc2)n(Cc2ccccc2Cl)n1)C(N)=O` [Example 20, 2-[[5-(4-Chlorophenyl)-1-[(2-chlorophenyl)methyl]pyrazol-3-yl]methoxy]-2-methyl-propanamide] are 17000 nM, 7900 nM and 22000 nM.
For `Cc1cccc(-c2cc(COC(C)(C)C(=O)O)nn2Cc2ccccc2Cl)c1` [Example 11, 2-[[1-[(2-Chlorophenyl)methyl]-5-(m-tolyl)pyrazol-3-yl]methoxy]-2-methyl-propanoic acid], in that order: 45 nM, 29000 nM and 25 nM.
With `CC(C)(OCc1cc(-c2cccc(Cl)c2)n(Cc2ccccc2Cl)n1)C(=O)O` [Example 10, 2-[[5-(3-Chlorophenyl)-1-[(2-chlorophenyl)methyl]pyrazol-3-yl]methoxy]-2-methyl-propanoic acid], the results for the IC50 on MCT4 [1], at MCT1 and against MCT4 [2] were 21 nM, 8800 nM and 33 nM, respectively.

Values taken from patent publication US10202350B2, “MCT4 inhibitors for treating disease” (Vettore, LLC, priority 2015, dated 2019).
